Key:
mice = assay: 5-FU haematopoietic stress in mice; format: in vivo, mouse
Description: young TXNIP+/+ or T X N IP -/- mice after 5-FU (150 mg kg-1) administration (n=10). NAC was
i.p. injected 100 m g kg -1 daily starting at da y -1. […] We i.p. injected
5- FU (150 mg kg-1) and NAC (100 mg kg-1) then examined ROS in HSCs after 24 hours
Data are mean ± s.d. Statistical significance was determined using a two-t ailed
Student’s t -tests. *P< 0.05, **P < 0.01, ***P <0.001.

TXNIP−/− HSCs = assay: ROS and phospho-p38 of LT-HSCs after NAC treatment in vivo; parameters: species or system mouse; settings: 12-month-old TXNIP−/− mice, NAC 100 mg kg−1 i.p., after 12 hours; n=3
Description: Supplementary Figure 2. Expression of p38 and TXNIP in HSCs and their interaction.
(a,b) ROS (a) and phospho- p38 level (b) of LT-HSCs after NAC treatment. We i.p. injected
100 mg kg-1 NAC into mice then anal yzed after 12 hours (n=3 ) . (c) Quantitative real-time
PCR of p38famil y in indicated subsets (n=3). ( d) Western blot anal yses of lin- cells (r epeated
3 times). ( e) Real-time PCR of TXNIP i n LT -HSCs (n=3). ( f) Confocal images of TXNIP in
LT-HSCs (rep eated 3 times). (g) Western blot anal yses of BM cells (rep eated 2 times). ( h,i )
GST pull-down assa y (repeated 3 times). ( j) Constructed p38 mutant clones. ( k) GST pull-
down assays between TXNIP and p38 mutants (repeated 3 times). Data are mean ± s.d.
Statistical significance was determined using a two-tailed Student’s t -tests. **P < 0.01.
matched WT mice (Fig. 1b). To make the data more consistent, the authors should present
their data as percentages of bone marrow cells and absolute number of LT-HSCs, SH-HSCs
Thank you for your valuable comments. We calculated the percentages of bone
marrow cells and absolute number of LT-HSCs, SH-HSCs and MPPs, and presented
the results in our new version Supplementary Fig. 1c,d.
the exhaustion of HSCs in TXNIP-/- mice by high ROS. We have added this text
“Next, we analyzed the frequency of BM cells and absolute number of LT-HSCs,
ST-HSCs and MPPs in each mouse. […]

old HSCs = assay: Polar distribution of Cdc42 in LT-HSCs (confocal); format: cell-based, mouse; settings: sorted LT-HSCs, 10 μM, 16 h in HSC media; 50-60 HSCs scored for Cdc42 polarity; repeated two times
Description: For phosho-p38 and TXNIP analysis using flow cytometry, total BM cells were first stained with surface markers and then fixed and permeabilized with the Cytofix/Perm Solution (BD Biosciences). For TXNIP staining, the cells were blocked with PBS containing 5% BSA for 30 min at RT and then incubated with primary antibody (1:50 dilution) for 1 h in PBS containing 5% BSA, washed three times with PBS and then incubated with a secondary Alexa Fluor 647 (Life technology; 1:1,000 dilution) for 1 h at RT or for phospho-p38 staining, the cells were incubated with anti-phospho-p38-APC (1:40 dilution) at 4 °C for 30 min in PBS containing 2% FBS. For confocal imaging, freshly isolated LT-HSCs were seeded on fibronectin-coated coverslips at 4 °C for 10 min and were immediately fixed. After fixation, cells were permeabilized with 0.2% Triton X-100 for 20 min and blocked with PBS containing 5% BSA for 30 min at RT. Cells were stained primary and secondary antibodies for 1 h at RT and then were mounted with DAPI containing mounting reagent (Molecular Probes). […] After fixation, cells were permeabilized with 0.2% Triton X-100 for 20 min and blocked with PBS containing 5% BSA for 30 min at RT. […] Fifty to sixty individual HSCs were scored for polarity of Cdc42. […]

TXNIP-p38 interaction = TXNIP-p38 interaction (immunoprecipitation, in situ PLA, GST pull-down); format: cell-based; settings: GST pull-down assay in 293T cells
aged HSCs = assay: Competitive transplantation of treated HSCs; format: in vivo, mouse; settings: long-term SB203580-administered recipients; n=6-7 from two experiments (Fig. 3d,e)
Text: The repopulation of donor-derived cells was monitored by staining PB from tail vein and BM cells with antibodies against indicated surface markers after 16 weeks.

Solubility = format: physicochemical; settings: authors' statement in response to reviewers
p38α = assay: In vitro kinase assay for p38 (phospho-ATF2 read-out); format: biochemical, human; settings: His-p38α, phospho-ATF2 levels; repeated 2 times (Suppl. Fig. 4b)
Description: To examine the kinase activity of p38 in vitro, we used p38 MAP Kinase assay kit (9820, Cell Signaling). We added 0.5–1 μg of His-p38α for kinase assay and its activity was determined by phospho-ATF2 levels. […] FLAG-p38α, β, γ and δ were expressed in 293T cells (ATCC). p38 isoforms were immunoprecipitated with α-FLAG antibody (Sigma; 1:250 dilution) then we performed in vitro kinase assay.

CC(=O)N[C@@H](CS)C(=O)O [NAC, N-acetyl-L-cysteine]
5-FU-induced ROS in HSCs (mice; 5-FU 150 mg kg−1 and NAC 100 mg kg−1 i.p., ROS after 24 hours, n=3): reversed | rescue of TXNIP−/− mice from 5-FU-induced leucopenia (survival) (mice; young mice, 5-FU 150 mg kg−1, NAC 100 mg kg−1 i.p. daily from day −1, n=10): fully rescued | ROS level in HSCs (TXNIP−/− HSCs): decreased | p38 activation in HSCs (TXNIP−/− HSCs): decreased

YGRKKRRQRRR [TAT]
% of polarized cells (Old HSCs) (old HSCs): 9.3%

C[S+]([O-])c1ccc(-c2nc(-c3ccncc3)c(-c3ccc(F)cc3)[nH]2)cc1 (stereo not shown) [SB203580]
% of polarized cells (Old HSCs) (old HSCs): 76.9% | p38 interaction ability with TXNIP (TXNIP-p38 interaction): did not affect | p38 activity and ROS in donor-derived HSCs (aged HSCs): maintained low levels of p38 activity and ROS | solubility (Solubility): DMSO soluble

B1: GST-TXNIP-T: GST-fused truncation mutant for TXNIP (150a.a–317a.a) (protein)
chain: DVNTPDLMAPVSAKKEKKVSCMFIPDGRVSVSARIDRKGFCEGDEISIHADFENTCSRIVVPKAAIVARHTYLANGQTKVLTQKLSSVRGNHIISGTCASWRGKSLRVQKIRPSILGCNILRVEYSLLIYVSVPGSKKVILDLPLVIGSRSGLSSRTSSMASRTSSEM
modifications: left off: GST, end not stated, kept
p38 kinase activity in vitro (p38α): inhibited p38 kinase activity in vitro

From publication PMC5155146, “Thioredoxin-interacting protein regulates haematopoietic stem cell ageing and rejuvenation by inhibiting p38 kinase activity” (Nature Communications, 2016)
